Read-outs that look alike come from different tables or passages of the source.
Assays:
Format in all cases: biochemical
[1] = target: calpain II from rabbit; assay: Calpain II inhibition, Suc-Leu-Tyr-AMC hydrolysis (KI); conditions: read-out: KI Cal II
Procedure: (§1) HEPES, heparin, and A23187 were obtained from Calbiochem. Suc-Leu-Tyr-AMC and chromogenic substrates were obtained from Sigma. Calpain I was purified from human erythrocytes according to the method of Kitahara (Kitahara et al., J. Biochem. 95, 1759-1766) omitting the Blue-Sepharose step. Calpain II from rabbit muscle and cathepsin B were purchased from Sigma. Papain was purchased from Calbiochem.
(§2) Peptide α-ketoamides were assayed as reversible enzyme inhibitors. Various concentrations of inhibitors in Me2 SO were added to the assay mixture which contained buffer and substrate. The reaction was started by the addition of the enzyme and the hydrolysis rates were followed spectrophotometrically or fluorimetrically.
(§3) Calpain I from human erythrocytes and calpain II from rabbit were assayed using Suc-Leu-Tyr-AMC Sasaki et al., J. Biol. Chem. 259, 12489-12494 (1984); incorporated herein by reference!, and the AMC (7-amino-4-methylcoumarin) release was followed fluorimetrically (excitation at 380 nm, and emmision at 460 nm). Calpains were assayed in 25 mM Tris pH=8.0, 10 mM CaC12. Fluorescence was followed using a Gilson FL-1A fluorometer or a Perkin-Elmer 203 Fluorescence spectrometer. Cathepsin B was assayed in 20 mM sodium acetate pH=5.2, 0.5 mM dithiothreitol using Bz-Phe-Val-Arg-p-nitroanilide as substrate. Alternately, cathepsin B was assayed with Z-Arg-Arg-AFC Barrett and Kirschke, Methods Enzymol. 80, 535-561 (1981); incorporated herein by reference!, and the AFC (7-amino-4-trifluoromethylcoumarin) release was followed fluorimetrically (excitation at 400 nm and emmision at 505 nm). Papain was assayed in 100 mM KPO4, 1 mM EDTA, 2.5 mM cysteine pH=6.0 using Bz-Arg-AMC or Bz-Arg-NA Kanaoka et al., Chem. Pharm. Bull. 25, 3126-3128 (1977); incorporated herein by reference! as a substrate. The AMC (7-amino-4-methylcoumarin) release was followed fluorimetrically (excitation at 380 nm, and emmision at 460 nm). Enzymatic hydrolysis rates were measured at various substrate and inhibitor concentrations, and KI values were determined by either Lineweaver-Burk plots or Dixon plots.
(§4) A 0.1M Hepes, 0.5M NaCl, pH 7.5 buffer was utilized for human leukocyte elastase (HLE), porcine pancreatic elastase (PPE), chymotrypsin and cathepsin G. A 0.1 Hepes, 0.01 M CaCl2, pH 7.5 buffer was utilized for trypsin, plasmin, and coagulation enzymes. A 50 mM Tris.HCl, 2 mM EDTA, 5 mM cysteine, pH 7.5 was used as a buffer for papain. A 88 mM KH2 PO4, 12 mM Na2 HPO4, 1.33 mM EDTA, 2.7 mM cysteine, pH 6.0 solution was used as a buffer for cathepsin B. A 20 mM Hepes, 10 mM CaCl2, 10 mM mercatoethanol, pH 7.2 buffer was utilized for calpain I and calpain II.

[2] = target: T1, Calpain I from human erythrocytes (Homo sapiens, UniProt P07384); assay: Calpain I inhibition, Suc-Leu-Tyr-AMC hydrolysis (KI); conditions: for Ki: read-out: KI Cal I
T1 construct: Calpain I was purified from human erythrocytes; from tissue; host or cells: human erythrocytes
T1 sequence (P07384 1-714): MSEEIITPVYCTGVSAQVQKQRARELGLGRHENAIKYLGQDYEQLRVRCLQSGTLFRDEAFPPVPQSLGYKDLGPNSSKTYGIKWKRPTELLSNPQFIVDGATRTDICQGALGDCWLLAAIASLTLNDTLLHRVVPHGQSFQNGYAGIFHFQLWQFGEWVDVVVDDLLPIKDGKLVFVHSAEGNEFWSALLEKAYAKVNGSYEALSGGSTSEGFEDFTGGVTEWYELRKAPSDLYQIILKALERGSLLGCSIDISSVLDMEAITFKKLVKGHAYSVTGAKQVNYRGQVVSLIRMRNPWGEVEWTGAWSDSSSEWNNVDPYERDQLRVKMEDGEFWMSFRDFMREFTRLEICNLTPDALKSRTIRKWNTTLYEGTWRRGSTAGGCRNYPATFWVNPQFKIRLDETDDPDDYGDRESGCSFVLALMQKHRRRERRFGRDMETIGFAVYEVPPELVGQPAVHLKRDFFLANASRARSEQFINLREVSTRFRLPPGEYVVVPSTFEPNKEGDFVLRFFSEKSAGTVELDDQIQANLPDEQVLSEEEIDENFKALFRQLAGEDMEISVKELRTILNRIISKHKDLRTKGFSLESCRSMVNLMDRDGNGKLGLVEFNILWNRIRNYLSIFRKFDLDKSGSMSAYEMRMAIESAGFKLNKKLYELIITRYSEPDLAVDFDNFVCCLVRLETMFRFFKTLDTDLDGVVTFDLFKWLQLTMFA
T1 sequence (P04632 1-268 partner): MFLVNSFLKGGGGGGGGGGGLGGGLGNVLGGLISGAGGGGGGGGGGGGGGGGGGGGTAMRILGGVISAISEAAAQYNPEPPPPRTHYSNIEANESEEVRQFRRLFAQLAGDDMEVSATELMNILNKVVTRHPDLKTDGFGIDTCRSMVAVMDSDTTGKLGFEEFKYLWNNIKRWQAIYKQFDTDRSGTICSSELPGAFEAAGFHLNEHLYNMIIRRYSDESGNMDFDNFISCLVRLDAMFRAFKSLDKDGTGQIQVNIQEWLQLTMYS
Procedure: as §1, §2, §3, §4

[3] = target: T2, cathepsin B (Homo sapiens, UniProt P07858); assay: Cathepsin B inhibition (KI); conditions: Table 1, Z-Leu--AA--CONHR; read-out: KI Cat B
T2 construct: purchased Sigma
Procedure: as §1, §2, §3, §4

[4] = target: T3, human leukocyte elastase (HLE) (Homo sapiens, UniProt P08246); assay: HLE inhibition, MeO-Suc-Ala-Ala-Pro-Val-NA hydrolysis; conditions: Table 4, Z-Leu--AA--CONH-R
T3 sequence (P08246 30-267): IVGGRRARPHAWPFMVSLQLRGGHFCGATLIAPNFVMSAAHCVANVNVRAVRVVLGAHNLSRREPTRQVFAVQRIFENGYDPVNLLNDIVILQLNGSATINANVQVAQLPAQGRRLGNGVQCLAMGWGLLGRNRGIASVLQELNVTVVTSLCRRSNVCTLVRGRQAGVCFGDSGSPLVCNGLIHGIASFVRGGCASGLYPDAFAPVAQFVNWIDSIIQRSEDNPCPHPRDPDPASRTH
Procedure: as §2, §4
HLE and PPE were assayed with MeO-Suc-Ala-Ala-Pro-Val-NA and Suc-Ala-Ala-Ala-NA, respectively Nakajima et al., J. Biol. Chem. 254, 4027-4032 (1979); incorporated herein by reference!. Human leukocyte cathepsin G and chymotrypsin Aα were assayed with Suc-Val-Pro-Phe-NA Tanaka et al., Biochemistry 24, 2040-2047 (1985); incorporated herein by reference!. The hydrolysis of peptide 4-nitroanilides was measured at 410 nm ε410 =8800 M^-1 cm^-1; Erlanger et al., Arch. Biochem. Biophys. 95, pp 271-278 (1961); incorporated herein by reference!. Trypsin, thrombin, human plasma kallikrein, porcine pancreatic kallikrein, human factor XIa, and human plasmin were assayed with Z-Arg-SBzl or Z-Gly-Arg-SBu-i McRae et al., Biochemistry 20, 7196-7206 (1981); incorporated herein by reference!. All peptide thioester hydrolysis rates were measured with assay mixtures containing 4,4'-dithiodipyridine ε324 =19800 M^-1 cm^-1; Grasetti & Murray, Arch. Biochem. Biophys. 119, 41-49 (1967); incorporated herein by reference!.

[5] = Table 2, Z-Leu--AA--CONH--CH2 CH(OH)-R

Ki [2, 5] | Ki ([2]; Table 1, Z-Leu--AA--CONHR) | IC50 [4] | Compound | other results
7800 nM | – | – | CCCC(NC(=O)C(CC(C)C)NC(=O)OCc1ccccc1)C(=O)C(=O)NCC(O)c1ccccc1 (stereo not drawn) [Z-Leu-Nva-CONH-CH2 CH(OH)-Ph, Z-Leu-Nva-CONH--CH2 CH(OH)Ph] | Ki [1, 5]: 11000 nM
– | 800 nM | – | CCC(NC(=O)C(CC(C)C)NC(=O)OCc1ccccc1)C(=O)C(=O)NCCO (stereo not drawn) [Z-Leu-Abu-CONH-(CH2)2 OH, Z-Leu-Abu-CONH--(CH2)2 OH] | Ki [3]: 4500 nM
– | 2400 nM | – | CC(C)C[C@H](NC(=O)OCc1ccccc1)C(=O)NC(Cc1ccccc1)C(=O)C(=O)NCc1nccc2ccccc12 (stereo partly drawn) [Z-Leu-Phe-CONH-CH2 -1-isoquinolinyl, Z-Leu-Phe-CONH--CH2 -1-Isoquinolinyl] | Ki [3]: 9600 nM
– | 410 nM | – | CCC(NC(=O)C(CC(C)C)NC(=O)OCc1ccccc1)C(=O)C(=O)NCCc1ccccn1 (stereo not drawn) [Z-Leu-Abu-CONH-(CH2)2 -2-pyridyl, Z-Leu-Abu-CONH--(CH2)2 -2-Pyridyl] | Ki ([1]; Table 1, Z-Leu--AA--CONHR): 470 nM
100 nM | – | 28000 nM | CCC(NC(=O)C(CC(C)C)NC(=O)OCc1ccccc1)C(=O)C(=O)NCC(O)c1ccc(Oc2ccccc2)cc1 (stereo not drawn) [Z-Leu-Abu-CONH-CH2 CH(OH)-C6 H4 (4-OPh), Z-Leu-Abu-CONH--CH2 CH(OH)C6 H4 (4-OPh)] | –
– | 19 nM | – | CCCC(NC(=O)C(CC(C)C)NC(=O)OCc1ccccc1)C(=O)C(=O)NCc1ccccn1 (stereo not drawn) [Z-Leu-Nva-CONH-CH2 -2-pyridyl, Z-Leu-Nva-CONH--CH2 -2-Pyridyl] | Ki ([1]; Table 1, Z-Leu--AA--CONHR): 120 nM; inhibition of calpain I, in words [2]: best inhibitor of calpain I
– | 250 nM | – | CCC(NC(=O)C(CC(C)C)NC(=O)OCc1ccccc1)C(=O)C(=O)NCc1nccc2ccccc12 (stereo not drawn) [Z-Leu-Abu-CONH-CH2 -1-isoquinolinyl, Z-Leu-Abu-CONH--CH2 -1-Isoquinolinyl] | Ki [3]: 300 nM
– | – | – | CC[C@H](NC(=O)[C@H](CC(C)C)NC(=O)OCc1ccccc1)C(=O)C(=O)NCCOCCO [Z-Leu-Abu-CONH-(CH2)2 O(CH2)2 OH, Z-Leu-Abu-CONH--(CH2)2 O(CH2)2 OH] | Ki [3]: 2000 nM
70 nM | – | 30000 nM | CCC(NC(=O)C(CC(C)C)NC(=O)OCc1ccccc1)C(=O)C(=O)NCC(O)c1cccc(Oc2cccc(C(F)(F)F)c2)c1 (stereo not drawn) [Z-Leu-Abu-CONH--CH2 CH(OH)C6 H4 -3-OC6 H4 (3-CF3)] | –
– | 650 nM | 38000 nM | CCC(NC(=O)C(CC(C)C)NC(=O)OCc1ccccc1)C(=O)C(=O)NCCNC(=O)CCCCC1SCC2NC(=O)NC21 (stereo not drawn) [Z-Leu-Abu-CONH-(CH2)2 NH-biotinyl, Z-Leu-Abu-CONH--(CH2)2NH-Biotinyl] | –
50 nM | – | 44000 nM | Z-Leu-Abu-CONH--CH2 CH(OH)C6 F5 [Z-Leu-Abu-CONH-CH2 CH(OH)-C6 F5] | inhibition of calpain I, in words [2]: best inhibitor for calpain I
240 nM | – | 32000 nM | CCC(NC(=O)C(CC(C)C)NC(=O)OCc1ccccc1)C(=O)C(=O)NCC(O)c1ccc(OC)cc1 (stereo not drawn) [Z-Leu-Abu-CONH-CH2 CH(OH)-C6 H4 (4-OCH3), Z-Leu-Abu-CONH--CH2 CH(OH)C6 H4 (4-OCH3)] | –
230 nM | – | 64000 nM | CCC(NC(=O)C(CC(C)C)NC(=O)OCc1ccccc1)C(=O)C(=O)NCC(O)c1ccc(OCc2ccccc2)c(OCc2ccccc2)c1 (stereo not drawn) [Z-Leu-Abu-CONH--CH2 CH(OH)C6 H3 (3,4-(OCH2 Ph)2)] | –
– | 380 nM | – | Z-Leu-Abu-CONH--(CH2)2 C6 H4 (4-OH) [Z-Leu-Abu-CONH-(CH2)2 C6 H4 (4-OH)] | Ki ([1]; Table 1, Z-Leu--AA--CONHR): 60 nM
– | – | – | CC(C)CC(NC(=O)C(c1ccccc1)c1ccccc1)C(=O)NC(Cc1ccccc1)C(=O)C(=O)NCC(O)c1ccccc1 (stereo not drawn) [Ph2 CH-CO-Leu-Phe-CONH-CH2 CH(OH)Ph, Ph2 CHCO-Leu-Phe-CONH--CH2 CH(OH)Ph] | Ki ([1]; Table 3, M1 CO-Leu--AA--CONH-R): 730 nM; Ki ([2]; Table 3, M1 CO-Leu--AA--CONH-R): 10000 nM
900 nM | – | 45000 nM | CCC(NC(=O)C(CC(C)C)NC(=O)OCc1ccccc1)C(=O)C(=O)NCC(O)c1cccc(Oc2ccccc2)c1 (stereo not drawn) [Z-Leu-Abu-CONH-CH2 CH(OH)-C6 H4 (3-OPh), Z-Leu-Abu-CONH--CH2 CH(OH)C6 H4 (3-OPh)] | –
– | – | – | CCC(NC(=O)C(CC(C)C)NC(=O)C(c1ccccc1)c1ccccc1)C(=O)C(=O)NCc1ccccn1 (stereo not drawn) [Ph2 CH-CO-Leu-Abu-CONH-CH2 -2-pyridyl, Ph2 CHCO-Leu-Abu-CONH-2-CH2 -Pyridyl] | Ki ([1]; Table 3, M1 CO-Leu--AA--CONH-R): 90 nM
– | 300 nM | 48000 nM | CCC(NC(=O)C(CC(C)C)NC(=O)OCc1ccccc1)C(=O)C(=O)NCCc1c[nH]c2ccccc12 (stereo not drawn) [Z-Leu-Abu-CONH-(CH2)2 -3-indolyl, Z-Leu-Abu-CONH--(CH2)2 -3-Indolyl] | Ki ([1]; Table 1, Z-Leu--AA--CONHR): 50 nM

Compound | Ki [2, 5] | Ki ([2]; Table 1, Z-Leu--AA--CONHR) | IC50 [4] | other results
CCC(NC(=O)C(CC(C)C)NC(=O)OCc1ccccc1)C(=O)C(=O)NCc1nc2c(c(=O)n(C)c(=O)n2C)n1C (stereo not drawn) [Z-Leu-Abu-CONH-CH2 -8-caffeine, Z-Leu-Abu-CONH--CH2 -8-Caffeine] | – | 32000 nM | 156000 nM | –
